From patent EP1752193A1, “Use of one or more cyclic 1,2-alkylene carbonates as stabilizer and activity enhancer for preservatives, corresponding composition” (Dr. Straetmans Chemische Produkte GmbH, priority 2005, dated 2007)

Assays:
Format in all cases: cell-based
Mikroorganismen = experiment: synergistic enhancement of antimicrobial agents by cyclic 1,2-alkylene carbonates; details: combination of cyclic 1,2-alkylene carbonate with preservative or antimicrobial additive
Description: Die Verwendung dieser zyklischen 1,2-Alkylencarbonate zur Herstellung von Mischungen mit herkömmlichen Konservierungsmitteln und der erfindungsgemäße Einsatz dieser Mischungen in kosmetischen oder dermatologischen Anwendungen zeigte überraschenderweise, dass die Effizienz der Konservierungsmittel in Konzentrationen, die für sich allein keine antimikrobielle Wirkung mehr zeigten, durch den Zusatz der zyklischen 1,2-Alkylencarbonate erheblich gesteigert werden kann und somit der Anteil der Konservierungsmittel in den entsprechenden Produkten signifikant gesenkt werden konnte.
Zyklische 1,2-Alkylencarbonate, für die dieser synergistische Effekt nachgewiesen werden konnten, finden sich bevorzugt in der Gruppe der linearen und verzweigten 1,2-Alkylencarboate mit einer Kettenlänge von n = 4 - 8, z.B. 1,2-Butylencarbonat, 1,2-Pentylencarbonat, 1,2-Hexylencarbonat und 1,2-Octylencarbonat.
Konservierungsmittel im Sinne der Erfindung, für die dieser synergistische Effekt nachgewiesen werden konnte, sind Methylparaben, Ethylparaben, Propylparaben, Isopropylparaben, Butylparaben und die Mischungen dieser Parabene, Phenoxyethanol, Benzoesäure und ihre Ester und Salze, Sorbinsäure und ihre Salze sowie Benzylalkohol. Die zu erwartenden synergistischen Effekte von 1,2-Alkylencarbonaten mit Iodopropinylbutylcarbamat, Formaldehyd and Formaldehyd-Abspalter (z.B. DMDM-Hydantoin, Imidazolinylharnstoff, Paraformaldehyd), Chlorphenesin, Bronopol, Methyldibromglutaronitril, Dehydracetsäure und ihre Salze, Polyaminopropylbiguanide, Chlorhexidin und seine Derivate (z.B. Chlorhexidinacetat, Chlorhexidingluconat, Chlorhexidinhydrochlorid), Methylisothiazolinon und Methylchloroisothiazolinone neben den in Anhang 6, Teil A und B der Kosmetikverordnung aufgeführten weiteren Stoffklassen oder Mischungen der genannten Konservierungsmittel werden ebenfalls in dieser Erfindung beansprucht.
Multifunktionellen Kosmetikadditive mit antimikrobiellen Eigenschaften im Sinne dieser Erfindung finden sich vor allem in der Gruppe der mittelkettigen polaren Substanzen. Diese Gruppe umfasst Polyole mit 5 - 12 Kohlenstoffatomen, wie z.B. Pentylenglycol, Hexylenglycol, 1,2-Hexandiol, Caprylyl Glycol oder 2-Methyl-1,3-propandiol, Monoester aus Glycerin und Fettsäuren der Kettenlänge n = 6 - 12, wie z.B. Glyceryl Caprylate, Glyceryl Caprate oder Glyceryl Laurate, Ether der Glycerins mit linearen oder verzweigten Alkanolen der Kettenlänge n = 6 - 12, wie z.B. das Ethylhexylglycerin sowie N-Acylderivate von Aminosäuren, z.B. N.Undecenylglycin.

Aspergillus Niger = experiment: microbiological challenge test (preservative efficacy, Ph. Eur. 1997 5.1.3); details: emulsion with 0,50 preservative, 2,00 carbonate where named
Description: (§1) Ergebnisse des mikrobiologischen Belastungstests, durchgeführt nach europäischem Arzneibuch 1997: 5.1.3 Prüfung auf ausreichende Konservierung (entspricht Deutschem Arzneibuch: VIII.14) für die Beispielrezeptur nach 1.:
(§2) Ergebnisse des mikrobiologischen Belastungstests, durchgeführt nach europäischem Arzneibuch 1997: 5.1.3 Prüfung auf ausreichende Konservierung (entspricht Deutschem Arzneibuch: VIII.14) für die Beispielrezeptur nach 3.:
(§3) Ergebnisse des mikrobiologischen Belastungstests, durchgeführt nach europäischem Arzneibuch 1997: 5.1.3 Prüfung auf ausreichende Konservierung (entspricht Deutschem Arzneibuch: VIII.14) für die Beispielrezeptur nach 4.:
(§4) Ergebnisse des mikrobiologischen Belastungstests, durchgeführt nach europäischem Arzneibuch 1997: 5.1.3 Prüfung auf ausreichende Konservierung (entspricht Deutschem Arzneibuch: VIII.14) für die Beispielrezeptur nach 5.:
(§5) Ergebnisse des mikrobiologischen Belastungstests, durchgeführt nach europäischem Arzneibuch 1997: 5.1.3 Prüfung auf ausreichende Konservierung (entspricht Deutschem Arzneibuch: VIII.14) für die Beispielrezeptur nach 6.: […]

Candida Albicans = experiment: as above; details: emulsion with 0,50 preservative, 2,00 carbonate where named
Description: as §1, §2, §3, §4, §5

Escherichia Coli = experiment: as above; details: emulsion with 0,50 preservative, 2,00 carbonate where named
Description: as §1, §2, §3, §4, §5

Pseudomonas Aeruginosa = experiment: as above; details: emulsion with 0,50 preservative, 2,00 carbonate where named
Description: as §1, §2, §3, §4, §5

Staphylococcus aureus = experiment: as above; details: emulsion with 0,50 preservative, 2,00 carbonate where named
Description: as §1, §2, §3, §4, §5

SMILES: CCC1COC(=O)O1 (stereo not drawn) [BC, 1,2-Butylencarbonat]
- synergistische Effekt (Mikroorganismen): Besonders ausgeprägt Effekte

SMILES: OCc1ccccc1 [Benzylalkohol]
- Koloniebildende Einheiten / g nach Beimpfung mit: Aspergillus Niger (Aspergillus Niger; 0 Tage (inoculum)): 170000 Koloniebildende Einheiten / g
- Koloniebildende Einheiten / g nach Beimpfung mit: Aspergillus Niger (Aspergillus Niger; 2 Tage): 64000 Koloniebildende Einheiten / g
- Koloniebildende Einheiten / g nach Beimpfung mit: Aspergillus Niger (Aspergillus Niger; 7 Tage): 60000 Koloniebildende Einheiten / g
- Koloniebildende Einheiten / g nach Beimpfung mit: Aspergillus Niger (Aspergillus Niger; 14 Tage): 59000 Koloniebildende Einheiten / g
- Koloniebildende Einheiten / g nach Beimpfung mit: Aspergillus Niger (Aspergillus Niger; 28 Tage): 61000 Koloniebildende Einheiten / g
- Koloniebildende Einheiten / g nach Beimpfung mit: Candida Albicans (Candida Albicans; 0 Tage (inoculum)): 410000 Koloniebildende Einheiten / g
- Koloniebildende Einheiten / g nach Beimpfung mit: Candida Albicans (Candida Albicans; 2 Tage): 70000 Koloniebildende Einheiten / g
- Koloniebildende Einheiten / g nach Beimpfung mit: Candida Albicans (Candida Albicans; 7 Tage): 50000 Koloniebildende Einheiten / g
- Koloniebildende Einheiten / g nach Beimpfung mit: Candida Albicans (Candida Albicans; 14 Tage): 50000 Koloniebildende Einheiten / g
- Koloniebildende Einheiten / g nach Beimpfung mit: Candida Albicans (Candida Albicans; 28 Tage): 45000 Koloniebildende Einheiten / g
- Koloniebildende Einheiten / g nach Beimpfung mit: Escherichia Coli (Escherichia Coli; 0 Tage (inoculum)): 810000 Koloniebildende Einheiten / g
- Koloniebildende Einheiten / g nach Beimpfung mit: Escherichia Coli (Escherichia Coli; 2 Tage): 100000 Koloniebildende Einheiten / g
- Koloniebildende Einheiten / g nach Beimpfung mit: Escherichia Coli (Escherichia Coli; 7 Tage): 100000 Koloniebildende Einheiten / g
- Koloniebildende Einheiten / g nach Beimpfung mit: Escherichia Coli (Escherichia Coli; 14 Tage): 52000 Koloniebildende Einheiten / g
- Koloniebildende Einheiten / g nach Beimpfung mit: Escherichia Coli (Escherichia Coli; 28 Tage): 8000 Koloniebildende Einheiten / g
- Koloniebildende Einheiten / g nach Beimpfung mit: Pseudomonas Aeruginosa (Pseudomonas Aeruginosa; 0 Tage (inoculum)): 210000 Koloniebildende Einheiten / g
- Koloniebildende Einheiten / g nach Beimpfung mit: Pseudomonas Aeruginosa (Pseudomonas Aeruginosa; 2 Tage): 40000 Koloniebildende Einheiten / g
- Koloniebildende Einheiten / g nach Beimpfung mit: Pseudomonas Aeruginosa (Pseudomonas Aeruginosa; 7 Tage): 12000 Koloniebildende Einheiten / g
- Koloniebildende Einheiten / g nach Beimpfung mit: Pseudomonas Aeruginosa (Pseudomonas Aeruginosa; 14 Tage): 1000 Koloniebildende Einheiten / g
- Koloniebildende Einheiten / g nach Beimpfung mit: Pseudomonas Aeruginosa (Pseudomonas Aeruginosa; 28 Tage): <10 Koloniebildende Einheiten / g
- Koloniebildende Einheiten / g nach Beimpfung mit: Staphylococcus aureus (Staphylococcus aureus; 0 Tage (inoculum)): 250000 Koloniebildende Einheiten / g
- Koloniebildende Einheiten / g nach Beimpfung mit: Staphylococcus aureus (Staphylococcus aureus; 2 Tage): 100000 Koloniebildende Einheiten / g
- Koloniebildende Einheiten / g nach Beimpfung mit: Staphylococcus aureus (Staphylococcus aureus; 7 Tage): 4000 Koloniebildende Einheiten / g
- Koloniebildende Einheiten / g nach Beimpfung mit: Staphylococcus aureus (Staphylococcus aureus; 14 Tage): <10 Koloniebildende Einheiten / g
- Koloniebildende Einheiten / g nach Beimpfung mit: Staphylococcus aureus (Staphylococcus aureus; 28 Tage): <10 Koloniebildende Einheiten / g

SMILES: CCCCCCC(O)CO (stereo not drawn) [Caprylyl Glycol]
- synergistische Effekt (Mikroorganismen): Besonders ausgeprägte Effekte

SMILES: CCCCCCCC(=O)OCC(O)CO (stereo not drawn) [Glyceryl Caprylate]
- synergistische Effekt (Mikroorganismen): Besonders ausgeprägte Effekte

SMILES: CCCC1COC(=O)O1 (stereo not drawn) [PC, 1,2-Pentylencarbonat]
- synergistische Effekt (Mikroorganismen): Besonders ausgeprägt Effekte

SMILES: OCCOc1ccccc1 [Phenoxyethanol]
- Koloniebildende Einheiten / g nach Beimpfung mit: Aspergillus Niger (Aspergillus Niger; 0 Tage (inoculum)): 320000 Koloniebildende Einheiten / g
- Koloniebildende Einheiten / g nach Beimpfung mit: Aspergillus Niger (Aspergillus Niger; 2 Tage): 60000 Koloniebildende Einheiten / g
- Koloniebildende Einheiten / g nach Beimpfung mit: Aspergillus Niger (Aspergillus Niger; 7 Tage): 60000 Koloniebildende Einheiten / g
- Koloniebildende Einheiten / g nach Beimpfung mit: Aspergillus Niger (Aspergillus Niger; 14 Tage): 60000 Koloniebildende Einheiten / g
- Koloniebildende Einheiten / g nach Beimpfung mit: Aspergillus Niger (Aspergillus Niger; 28 Tage): 50000 Koloniebildende Einheiten / g
- Koloniebildende Einheiten / g nach Beimpfung mit: Candida Albicans (Candida Albicans; 0 Tage (inoculum)): 310000 Koloniebildende Einheiten / g
- Koloniebildende Einheiten / g nach Beimpfung mit: Candida Albicans (Candida Albicans; 2 Tage): 100000 Koloniebildende Einheiten / g
- Koloniebildende Einheiten / g nach Beimpfung mit: Candida Albicans (Candida Albicans; 7 Tage): 100000 Koloniebildende Einheiten / g
- Koloniebildende Einheiten / g nach Beimpfung mit: Candida Albicans (Candida Albicans; 14 Tage): 100000 Koloniebildende Einheiten / g
- Koloniebildende Einheiten / g nach Beimpfung mit: Candida Albicans (Candida Albicans; 28 Tage): 80000 Koloniebildende Einheiten / g
- Koloniebildende Einheiten / g nach Beimpfung mit: Escherichia Coli (Escherichia Coli; 0 Tage (inoculum)): 3000000 Koloniebildende Einheiten / g
- Koloniebildende Einheiten / g nach Beimpfung mit: Escherichia Coli (Escherichia Coli; 2 Tage): 100000 Koloniebildende Einheiten / g
- Koloniebildende Einheiten / g nach Beimpfung mit: Escherichia Coli (Escherichia Coli; 7 Tage): 100000 Koloniebildende Einheiten / g
- Koloniebildende Einheiten / g nach Beimpfung mit: Escherichia Coli (Escherichia Coli; 14 Tage): 100000 Koloniebildende Einheiten / g
- Koloniebildende Einheiten / g nach Beimpfung mit: Escherichia Coli (Escherichia Coli; 28 Tage): 70000 Koloniebildende Einheiten / g
- Koloniebildende Einheiten / g nach Beimpfung mit: Pseudomonas Aeruginosa (Pseudomonas Aeruginosa; 0 Tage (inoculum)): 600000 Koloniebildende Einheiten / g
- Koloniebildende Einheiten / g nach Beimpfung mit: Pseudomonas Aeruginosa (Pseudomonas Aeruginosa; 2 Tage): 8000 Koloniebildende Einheiten / g
- Koloniebildende Einheiten / g nach Beimpfung mit: Pseudomonas Aeruginosa (Pseudomonas Aeruginosa; 7 Tage): 10000 Koloniebildende Einheiten / g
- Koloniebildende Einheiten / g nach Beimpfung mit: Pseudomonas Aeruginosa (Pseudomonas Aeruginosa; 14 Tage): 10000 Koloniebildende Einheiten / g
- Koloniebildende Einheiten / g nach Beimpfung mit: Pseudomonas Aeruginosa (Pseudomonas Aeruginosa; 28 Tage): 10000 Koloniebildende Einheiten / g
- Koloniebildende Einheiten / g nach Beimpfung mit: Staphylococcus aureus (Staphylococcus aureus; 0 Tage (inoculum)): 380000 Koloniebildende Einheiten / g
- Koloniebildende Einheiten / g nach Beimpfung mit: Staphylococcus aureus (Staphylococcus aureus; 2 Tage): 100000 Koloniebildende Einheiten / g
- Koloniebildende Einheiten / g nach Beimpfung mit: Staphylococcus aureus (Staphylococcus aureus; 7 Tage): 100000 Koloniebildende Einheiten / g
- Koloniebildende Einheiten / g nach Beimpfung mit: Staphylococcus aureus (Staphylococcus aureus; 14 Tage): 84000 Koloniebildende Einheiten / g
- Koloniebildende Einheiten / g nach Beimpfung mit: Staphylococcus aureus (Staphylococcus aureus; 28 Tage): 80000 Koloniebildende Einheiten / g
